In patent US20240299299A1, “COMPOSITIONS AND METHODS FOR INCREASING THE EFFICACY OF IMMUNOTHERAPIES AND VACCINES” (The Regents of the University of Michigan, priority 2021, published 2024):

Assays:
OT-I CD8+ T cells [1] = test: In vitro central memory (Tcm) differentiation of OT-I CD8+ T cells activated with SIINFEKL peptide and IL-2 with metabolites; format: cell-based, mice; details: day 8; metabolite-supplemented medium (arginine 3 mM, 3-methylhistidine 3 mM, DHB 100 μM, sodium ferulate 100 μM)
Procedure: FIG. 2: a) OT-I CD8+ T cells were cultured with different metabolites in vitro as indicated, b,c) shown is the frequency of CD44^+CD62L^+ Tcm CD8+ T cells on day 8. d) OT-I CD8+ T cells were activated with α-CD3/α-CD28 antibodies in presence of metabolites as indicated and shown is the Tcm CD8+ T cells on day 7. Data represent the mean±s.e.m. (n=5).
(§1) Splenocytes from OT-I mice were obtained aseptically. The cells were cultured in 96-well plates (1×10^5 cells per well). For Tcm differentiation study, cells were activated with SIINFEKL peptide (4×10^−9M) in the presence of various metabolites (arginine: 3 mM; 3-methylhistidine: 3 mM; N-acetylneuraminate: 100 μM; disodium sebacate: 100 μM; DHB: 100 μM; pantothenate: 100 μM; γ-aminobutyric acid: 100 μM; glycerol: 100 μM; AICAR: 100 μM, sodium ferulate: 100 μM) for 3 days. Then cells were washed three times with T-cell medium and further cultured with IL-2 (10 ng ml^−1; PeproTech) in the presence of metabolites for 5 days. The cells were then washed twice and re-activated with SIINFEKL peptide (10 μM) for 2 h. The suspension cells were collected, blocked with CD16/32 antibody and stained with the fixable viability dye eFluor 450, FITC-CD44 rat anti-human/mouse and PE-CD62L monoclonal antibody. To test if the central memory CD8+ T cells differentiation is dependent on dendritic cells, CD8 T cells isolated from the spleen in OT-I mice were incubated in the 96-well plate, which was precoated with anti-hamster IgG antibody. […] (1 μg mL^−1) and IL-2 (100 U mL^−1) were added into each well in the presence of 3-methylhistidine (3 mM), DHB (100 μM), or sodium ferulate (100 μM) for 2 days. Then cells were washed for three times to remove α-CD3/α-CD28 antibodies and further incubated with metabolites and IL-2 (10 ng ml^−1) for 5 days. Thereafter, cells were collected for central memory CD8^+ T cells analysis. For CD8^+ T cells survival study, cells were activated with antigen peptide as above, following with thoroughly washing, and incubation in presence of IL-2 for 2 days. Metabolites were added during this incubation (arginine: 3 mM, 1 mM; 3-methylhistidine: 3 mM, 1 mM, 500 μM, 100 μM; N-acetylneuraminate: 100 μM; disodium sebacate: 100 μM; DHB: 100 μM, 50 μM, 20 μM; pantothenate: 100 μM; γ-aminobutyric acid: 100 μM; glycerol: 100 μM; AICAR: 100 μM). Then cells were further incubated in absence of both IL-2 and metabolites for 36 h to induce the apoptosis/dead. For Tcf1^+CD8^+ differentiation study, cells were activated with antigen peptide as above, followed by thoroughly washing, and incubation with metabolites in presence of IL-2 for 3 days. […] Tcf1^+CD8^+, CD44^+CD62L^+CD8^+ and survival (stained with Annexin V-APC and PI) T cells were detected via flow cytometry.

tumor = details: reported in literature (Geiger et al.); cited from earlier work
OT-I CD8+ T cells [2] = test: CD8+ T cell survival upon IL-2 withdrawal (Annexin V/PI); format: cell-based, mice; details: dependent on the dose of metabolites
Procedure: FIG. 4: a) OT-I CD8+ T cells were cultured with different metabolites in vitro as indicated, b,c) shown are the level of survival CD8+ T cells (Annexin V^−PI^−) as well as the representative flow cytometry plots on day 5.5. Data represent the mean±s.e.m. (n=5).
as §1, with “days.” for “days. Metabolites were added during this incubation (arginine: 3 mM, 1 mM; 3-methylhistidine: 3 mM, 1 mM, 500 μM, 100 μM; N-acetylneuraminate: 100 μM; disodium sebacate: 100 μM; DHB: 100 μM, 50 μM, 20 μM; pantothenate: 100 μM; γ-aminobutyric acid: 100 μM; glycerol: 100 μM; AICAR: 100 μM). Then cells were further incubated in absence of both IL-2 and metabolites for 36 h to induce the apoptosis/dead. For Tcf1^+CD8^+ differentiation study, cells were activated with antigen peptide as above, followed by thoroughly washing, and incubation with metabolites in presence of IL-2 for 3 days.”

[3] = Encapsulation of DHB-based prodrugs in lipid-based formulation; format: physicochemical; details: oleic acid, Tween 80, PBS emulsion
Procedure: The DHB-based prodrugs were synthesized by the Medicinal Chemistry Core in University of Michigan. To prepare the formulation, the prodrug #201 or #905 (4 mg) was added to the mixture of oleic acid (45 μL) and Tween 80 (25 μL) and incubated overnight to equilibrate and allow the prodrug to dissolve. Then an aqueous phase consisting of PBS buffer was added, and the formulation emulsified by ultrasonication with an ultrasonic processor.

[4] = system: CT26 colon carcinoma cells; test: CT26 tumor model, oral prodrug-based lipid formulation plus α-PD-1; format: in vivo, BALB/c mice
Procedure: FIG. 9: a) Scheme showing the preparation of formulation encapsulating DHB prodrug. b) Therapeutic treatment regimen. BALB/c mice were s.c. inoculated with 1.5×10^5 CT26 colon carcinoma cells. The prodrug #201 (0.5 mg per dose) or #905 (1 mg per dose) were orally administrated every other day, respectively. 100 μg α-PD-1 was injected i.p. on days 11, 15, and 19. Shown are the (c) average tumor growth; AH1-specific CD8+ T cells in PBMCs on days (d) 18 and (e) 24. Tumor microenvironment analysis: (f) immune cells (CD45^+ cells) infiltration, (g) CD8^+ T cells, (h) CD44^+CD62L^+ central memory CD8+ T cells, and (i) AH1-specific CD8^+ T cells in tumor tissue on day 25. Data represent the mean±s.e.m. (n=5).
The CT26 tumor model was established as above. The formulation containing prodrug #201 or #905 was orally administered starting on day 8 and performed every other day. α-PD-1 antibody (100 μg per dose) was i.p. injected on days 11, 15, and 19. The PBMCs were obtained on days 18 and 24 and stained with PE-tagged peptide-MHC tetramer (H-2L^d-restricted SPSYVYHQF). Mice were euthanized on day 25 and tumor tissues were cut into small pieces and incubated with collagenase type IV (1 mg ml-1) and DNase I (0.1 mg ml-1) under gentle shaking. After 30 min, the cell suspension was filtered through a 70-μm strainer. The cells were washed with fluorescence-activated cell sorting (FACS) buffer and blocked with CD16/32 antibody. The cells were then stained with the designated antibodies: efluor450, FITC-CD44 rat anti-human/mouse, PE-CD62L monoclonal antibody, and APC-CD8 rat anti-mouse, PE-Tcf1/Tcf7 rabbit monoclonal antibody, APC-efluor780-Cd45 Rat anti Mouse (Clone: 30 F11), PE-AH1-specific tetramer. Cells were analyzed by flow cytometry.

cancer cells = details: reported in literature (Eroglu et al.); cited from earlier work

For `N=C(N)NCCC[C@H](N)C(=O)O` [L-arginine], the “differentiation of CD44+CD62L+ central memory CD8+ T cells” value (OT-I CD8+ T cells [1]) is given as “significantly increased the differentiation”, the “antitumor effect in vivo” value (tumor) is given as “improve the antitumor effect in vivo” and the “survival of activated CD8+ T cells” value (OT-I CD8+ T cells [2]) is given as “significantly increased the survival”.

For `CCOC(=O)Oc1ccc(C(=O)OCC)cc1OC(=O)OCC` [Prodrug #905, ethyl 3,4-bis((ethoxycarbonyl)oxy)benzoate], the “encapsulation in lipid-based dose forms” value [3] was “can be successfully encapsulated”.

With `CCOC(=O)c1ccc(OC(=O)C(C)(C)C)c(OC(=O)C(C)(C)C)c1` [Prodrug #201, 4-(ethoxycarbonyl)-1,2-phenylene bis(2,2-dimethylpropanoate)] the “infiltration of immune cells (CD45+ cells), AH1-specific CD8+ T cells and CD44+CD62L+ central memory CD8+ T cells in tumor tissue” value ([4]; oral formulation plus α-PD-1, day 25) was “promoted the infiltration”, the “frequency of AH1-specific CD8+ T cells among PBMCs” value ([4]; oral formulation plus α-PD-1, days 18 and 24) was “increased the frequency” and the tumor growth ([4]; orally administered lipid formulation, 0.5 mg per dose every other day, plus α-PD-1) was “substantially slowed down the tumor growth”. The “encapsulation in lipid-based dose forms” value [3] was “can be successfully encapsulated”.

In the case of `COc1cc(/C=C/C(=O)O)ccc1O` [Ferulic acid], the “apoptosis in cancer cells” value (cancer cells) is given as “can induce apoptosis”.
